Results published in ChEMBL document CHEMBL2074216, “Novel camptothecin analogues that circumvent ABCG2-associated drug resistance in human tumor cells” (Int J Cancer, 2004).

Each molecule was assayed against T1, Broad substrate specificity ATP-binding cassette transporter ABCG2 (Homo sapiens, UniProt Q9UNQ0) (assay: TP_TRANSPORTER: uptake in BCRP-expressing PC-6 cells).
T1 sequence (Q9UNQ0 whole entry): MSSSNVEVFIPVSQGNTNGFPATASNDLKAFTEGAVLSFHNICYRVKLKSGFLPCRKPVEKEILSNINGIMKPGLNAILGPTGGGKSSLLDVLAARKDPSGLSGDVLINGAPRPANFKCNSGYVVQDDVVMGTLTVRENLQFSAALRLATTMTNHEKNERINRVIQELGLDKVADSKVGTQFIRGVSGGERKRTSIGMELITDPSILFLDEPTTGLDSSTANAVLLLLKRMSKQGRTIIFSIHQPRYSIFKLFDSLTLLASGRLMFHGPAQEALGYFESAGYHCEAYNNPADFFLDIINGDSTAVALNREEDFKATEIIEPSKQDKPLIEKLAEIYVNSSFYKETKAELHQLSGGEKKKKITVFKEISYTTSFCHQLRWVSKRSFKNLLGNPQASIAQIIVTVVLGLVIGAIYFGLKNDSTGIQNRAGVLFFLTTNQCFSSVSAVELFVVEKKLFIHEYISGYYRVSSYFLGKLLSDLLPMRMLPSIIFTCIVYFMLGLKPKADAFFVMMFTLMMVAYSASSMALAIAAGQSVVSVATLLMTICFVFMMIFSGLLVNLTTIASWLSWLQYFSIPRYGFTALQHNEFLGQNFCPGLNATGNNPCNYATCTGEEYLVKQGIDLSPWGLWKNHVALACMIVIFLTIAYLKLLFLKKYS
Assay type: functional, cell-based

Structure (SMILES) | Activity
CCc1c2c(nc3cc(F)c(O)cc13)-c1cc3c(c(=O)n1C2)COC(=O)[C@]3(O)CC | substrate []
CCc1c2c(nc3cc(F)c(OC)cc13)-c1cc3c(c(=O)n1C2)COC(=O)[C@]3(O)CC | substrate []
CCc1c2c(nc3cc(O)ccc13)-c1cc3c(c(=O)n1C2)COC(=O)[C@]3(O)CC | substrate []
CCc1c2c(nc3cc(Br)ccc13)-c1cc3c(c(=O)n1C2)COC(=O)[C@]3(O)CC | substrate []
CCc1c2c(nc3ccc(Cl)cc13)-c1cc3c(c(=O)n1C2)COC(=O)[C@]3(O)CC | substrate []
CCc1c2c(nc3ccc(N)cc13)-c1cc3c(c(=O)n1C2)COC(=O)[C@]3(O)CC | substrate []
CCc1c2c(nc3ccc(O)cc13)-c1cc3c(c(=O)n1C2)COC(=O)[C@]3(O)CC [7-ETHYL-10-HYDROXYCAMPTOTHECIN] | substrate []
